Measured values published in patent US10167507B2, “Metabolic diseases-related odorant receptor genes and use thereof” (INDUSTRY-ACADEMIC COOPERATION FOUNDATION, YONSEI UNIVERSITY, priority 2010, dated 2019).

Key:
[1] = tested on: olfactory receptors in visceral fat tissue; assay: OligoDNA microarray, visceral fat tissue of HFD mice fed odor components; assay type: in vivo, mouse
Experimental: DNA microarry analysis using RNAs of visceral fat and liver tissue was conducted by GENOCHECK (CO., LTD.). RNA samples were pooled from 10 mice in each experimental group and subjected to microarray experiments in triplicate for the test of reproducibility. NimbleGen Mouse Whole Oligo 12-plex chip used in this experiment was prepared by triplicating 42,576 genes using Mouse Genome Build 8 as database. In NimbleGen mouse Whole Oligo 12-plex chip, 137,090 spots excluded control group gene were spotted by 16 μm×16 μm size in 17.4 mm×13 mm size. 42,576 oligo included 137,145 genes which are known their functions and 5,431 transcripts and EST sequences which are unknown their functions. 10-50 μg of total RNA was added in oligo-dT primer, reverse transcriptase, dNTP, Cy3-dUTP and Cy5-dUTP, and reverse-transcripted according to the kit manufacturer's recommendations. The resultant was purified using cartridge, dried and dissolved in hybridization buffer solution (30 μL). The microarray was placed in hybridization cassette, heated at 95-100° C. for 5 min, mixed independently to each of RNA labeled with Cy3 and Cy5, and hybridized at 45° C. for 18 hrs. The slide was washed twice in solution containing 1×SSC and 0.1% SDS for 5 min, washed in 1×SSC for 5 min and dried to analyze.

[2] = tested on: olfactory receptors in liver tissue; assay: OligoDNA microarray, liver tissue of HFD mice fed odor components; assay type: in vivo, mouse
Text: (§1) The obesity-inducing control diet used in the test was high-fat diet (HFD: 40% fat calorie, 17 g lard+3% corn oil/100 g diet). Diets supplemented with an odor component had the same composition as HFD, except that each of various types of odor components (indol-3-carbinol, oleuropein, cedryl acetate, α-cedrene and piperine) having anti-obesity efficacy was contained in 0.02-0.05% concentration. Indo)-3-carbinol, oleuropein, cedryl acetate, a-cedrene and piperine were purchased from Sigma-Aldrich.
(§2) After adding Trizol agent to visceral fat or liver tissue, the mixture was homogenized and centrifuged at 12,000×g for 10 min at 4° C. The supernatant was transferred to a new tube to remove fat layer. Then, 200 μl of chloroform was added to the tube, followed by vortexing. The same procedure was repeated twice and then the supernatant was transferred to a new tube, followed by addition of isopropanol and the supernatant at 1:1 ratio. The mixture was vigorously shaken 10 times and then incubated for 10 min at room temperature, followed by centrifugation at 12,000×g for 10 min at 4° C. to remove the supernatant. After adding 1 mL of 70% ethanol to the remaining pellet, it was centrifuged at 7,500×g for 5 min at 4° C. After removing the ethanol, the RNA pellet contained in the tube was dried for 5 min at 4° C. and dissolved in nuclease-free water. The RNA sample concentration was measured at a wavelength of 260 nm and 280 nm using a UV/VIS spectrophotometer (Beckman coulter, DU730) and the integrity of RNA sample was verified by agarose gel electrophoresis.
(§3) DNA microarry analysis using RNAs of visceral fat and liver tissue was conducted by GENOCHECK (CO., LTD.). RNA samples were pooled from 10 mice in each experimental group and subjected to microarray experiments in triplicate for the test of reproducibility. NimbleGen Mouse Whole Oligo 12-plex chip used in this experiment was prepared by triplicating 42,576 genes using Mouse Genome Build 8 as database. In NimbleGen mouse Whole Oligo 12-plex chip, 137,090 spots excluded control group gene were spotted by 16 μm×16 μm size in 17.4 mm×13 mm size. 42,576 oligo included […] genes which are known their functions and 5,431 transcripts and EST sequences which are unknown their functions. 10-50 μg of total RNA was added in oligo-dT primer, reverse transcriptase, dNTP, Cy3-dUTP and Cy5-dUTP, and reverse-transcripted according to the kit manufacturer's recommendations. The resultant was purified using cartridge, dried and dissolved in hybridization buffer solution (30 μL). The microarray was placed in hybridization cassette, heated at 95-100° C. for 5 min, mixed independently to each of RNA labeled with Cy3 and Cy5, and hybridized at 45° C. for 18 hrs. The slide was washed twice in solution containing 1×SSC and 0.1% SDS for 5 min, washed in 1×SSC for 5 min and dried to analyze.
(§4) The profile for olfactory receptors in which the expression was regulated by more than 2-fold change due to intake of odor components at each tissue was shown in Tables 5. As a result, it was determined that various types of odor components having anti-obesity efficacy regulated a plurality of olfactory receptors in peripheral tissues.

[3] = tested on: olfactory receptors in visceral fat and liver tissues; assay: OligoDNA microarray, visceral fat and liver tissues of HFD mice fed odor components (tissue not separated in text); assay type: in vivo; conditions: supplemented to mouse fed high-fat diet for 10 weeks
Text: as §1, §2, §3, §4

[4] = tested on: obesity and metabolic diseases-related genes in visceral fat tissue; assay: RT-PCR of obesity and metabolic diseases-related genes, visceral fat tissue; assay type: in vivo, mouse; conditions: odor component-supplemented group to the HFD control group
Experimental: After adding 1 mL of Trizol agent (Invitrogen, USA) per 0.1 g of visceral fat or liver tissues, the mixture was homogenized and centrifuged at 12,000×g for 10 min at 4° C. The supernatant was transferred to a new tube and 200 μl of chloroform was added to the tube, followed by vortexing. The same procedure was repeated twice and then the supernatant was transferred to a new tube, followed by addition of isopropanol and the supernatant at 1:1 ratio. The mixture was vigorously shaken 10 times and then incubated for 10 min at room temperature, followed by centrifugation at 12,000×g for 10 min at 4° C. to remove the supernatant. After adding 1 mL of 70% ethanol to the remaining pellet, it was centrifuged at 7,500×g for 5 min at 4° C. After removing the ethanol, the RNA pellet contained in the tube was dried for 5 min at 4° C. and dissolved in nuclease-free water. The RNA sample concentration was measured at a wavelength of 260 nm and 280 nm using a UV/VIS spectrophotometer (Beckman coulter, DU730) and the integrity of RNA sample was verified by agarose gel electrophoresis. The RNA sample obtained from the visceral fat or liver tissues was trasnscribed using oligo dT primer and reverse transcriptase (GIBCO BRL, Gaithersburg, Md., USA) to synthesize cDNA. The PCR amplification was performed using the cDNA as templates and primers complementary to cDNA [NT] flanking sequence. 1 μl of the amplified products were resolved on agarose gel electrophoresis to verify DNA band.

[5] = tested on: HSL (hormone sensitive lipase); assay: Western blotting, protein phosphorylation of HSL; assay type: in vivo, mouse
Experimental: (§5) A certain amount of visceral fat or liver tissues in mortar was homogenized with liquid nitrogen and cell lysis buffer. The mixture was transferred to a new tube, followed by vortexing. After centrifugation at 13,000×g for 20 min at 4° C., the middle layer of the tube was obtained and proteins were quantified by Bradford method. 50 μg of protein was electrophorized to SDS polyacrylamide gel, followed by electroblotting to PVDF hyper film. The protein was reacted using an appropriate antibody for the protein and detected by ECL, whereby insulin resistance, adipocyte differentiation, lipid metabolism or energy consumption-related mechanism of phytochemical components was investigated in the protein level.
(§6) In order to verify this, protein phosphorylations of HSL (hormone sensitive lipase), CREB (cAMP-responsive element binding protein) and AKT (v-akt murine thymoma viral oncogene) were evaluated by western blotting analysis.

[6] = tested on: CREB (cAMP-responsive element binding protein); assay: Western blotting, protein phosphorylation of CREB; assay type: in vivo, mouse
Experimental: as §5, §6

[7] = tested on: AKT (v-akt murine thymoma viral oncogene); assay: Western blotting, protein phosphorylation of AKT; assay type: in vivo, mouse
Experimental: as §5, §6

[8] = supplemented to HFD-fed mouse 10 weeks
[9] = odor component-supplemented group to the HFD control group
[10] = western blotting, compared to the HFD control group

## OCc1c[nH]c2ccccc12 [Indole-3 carbinol]
[1]; [8]
  Olfr380 expression fold change to HFD group: 2.20
  Olfr909 expression fold change to HFD group: 3.45
  Olfr972 expression fold change to HFD group: 0.43
  Olfr1093 expression fold change to HFD group: 0.42
  Olfr1165 expression fold change to HFD group: 0.39
  Olfr1462 expression fold change to HFD group: 2.26
[2]; [8]
  Olfr16 expression fold change to HFD group: 0.47
  Olfr116 expression fold change to HFD group: 2.12
  Olfr178 expression fold change to HFD group: 2.06
  Olfr196 expression fold change to HFD group: 0.45
  Olfr259 expression fold change to HFD group: 0.50
  Olfr290 expression fold change to HFD group: 2.11
  Olfr466 expression fold change to HFD group: 0.49
  Olfr686 expression fold change to HFD group: 0.35
  Olfr1045 expression fold change to HFD group: 0.45
  Olfr1153 expression fold change to HFD group: 2.82
  Olfr1216 expression fold change to HFD group: 0.41
  Olfr1329 expression fold change to HFD group: 0.48
  Olfr1337 expression fold change to HFD group: 0.49

## CC1=CC[C@@]23C[C@@H]1C(C)(C)[C@@H]2CC[C@H]3C [α-cedrene]
[2]
  expression of olfactory receptor 38: increased
  expression of olfactory receptor 878: increased
  expression of olfactory receptor 1045: decreased
[2]; [8]
  Olfr38 expression fold change to HFD group: 3.83
  Olfr878 expression fold change to HFD group: 5.87
  Olfr1045 expression fold change to HFD group: 0.43
  Olfr1222 expression fold change to HFD group: 2.15
[3]
  expression of olfactory receptor 38 increased: more than 2 fold change
  expression of olfactory receptor 878 increased: more than 2 fold change
  expression of olfactory receptor 1045 decreased: more than 2 fold change
  expression of olfactory receptor 1222 increased: more than 2 fold change

## CC(=O)O[C@]1(C)CC[C@@]23C[C@@H]1C(C)(C)[C@@H]2CC[C@H]3C [cedryl acetate]
[1]
  expression of olfactory receptor 290: increased
  expression of olfactory receptor 341: decreased
  expression of olfactory receptor 380: increased
  expression of olfactory receptor 1104: increased
  expression of olfactory receptor 1165: decreased
[1]; [8]
  Olfr290 expression fold change to HFD group: 2.40
  Olfr341 expression fold change to HFD group: 0.32
  Olfr380 expression fold change to HFD group: 2.14
  Olfr417 expression fold change to HFD group: 0.42
  Olfr618 expression fold change to HFD group: 0.43
  Olfr663 expression fold change to HFD group: 2.04
  Olfr1058 expression fold change to HFD group: 2.18
  Olfr1104 expression fold change to HFD group: 3.22
  Olfr1123 expression fold change to HFD group: 2.64
  Olfr1125 expression fold change to HFD group: 2.07
  Olfr1136 expression fold change to HFD group: 0.43
  Olfr1157 expression fold change to HFD group: 0.46
  Olfr1165 expression fold change to HFD group: 0.36
  Olfr1442 expression fold change to HFD group: 2.18
[2]
  expression of olfactory receptor 38: increased
  expression of olfactory receptor 77: decreased
  expression of olfactory receptor 275: increased
  expression of olfactory receptor 878: increased
[2]; [8]
  Olfr38 expression fold change to HFD group: 2.39
  Olfr77 expression fold change to HFD group: 0.5
  Olfr275 expression fold change to HFD group: 2.64
  Olfr305 expression fold change to HFD group: 2.21
  Olfr878 expression fold change to HFD group: 2.76
[2]; supplemented to HFD-fed mouse 10 weeks, listed as Cedryl acetate
  Olfr77 expression fold change to HFD group: 0.50
[3]
  expression of olfactory receptor 38 increased: more than 2 fold change
  expression of olfactory receptor 77 decreased: more than 2 fold change
  expression of olfactory receptor 275 increased: more than 2 fold change
  expression of olfactory receptor 290 increased: more than 2 fold change
  expression of olfactory receptor 305 increased: more than 2 fold change
  expression of olfactory receptor 341 decreased: more than 2 fold change
  expression of olfactory receptor 380 increased: more than 2 fold change
  expression of olfactory receptor 417 decreased: more than 2 fold change
  expression of olfactory receptor 618 decreased: more than 2 fold change
  expression of olfactory receptor 663 increased: more than 2 fold change
  expression of olfactory receptor 878 increased: more than 2 fold change
  expression of olfactory receptor 1058 increased: more than 2 fold change
  expression of olfactory receptor 1104 increased: more than 2 fold change
  expression of olfactory receptor 1123 increased: more than 2 fold change
  expression of olfactory receptor 1125 increased: more than 2 fold change
  expression of olfactory receptor 1136 decreased: more than 2 fold change
  expression of olfactory receptor 1157 decreased: more than 2 fold change
  expression of olfactory receptor 1165 decreased: more than 2 fold change
  expression of olfactory receptor 1442 increased: more than 2 fold change
[4]
  C/EBPα gene expression, decrease (change rate): 36% decrease
  CPT1 gene expression, increase (change rate): 47% increase^
  FAS gene expression, decrease (change rate): 43% decrease
  IL-6 gene expression, decrease (change rate): 74% decrease
  PGC1α gene expression, increase (change rate): 57% increase^
  PPARγ2 gene expression, decrease (change rate): 25% decrease
  SIRT1 gene expression, increase (change rate): 650% increase ^
  TNFα gene expression, decrease (change rate): 99% decrease
  UCP1 gene expression, increase (change rate): 899% increase ^
  UCP3 gene expression, increase (change rate): 65% increase^
  aP2 gene expression, decrease (change rate): 33% decrease
[5]; [9]
  HSL phosphorylation, increase (change rate): 46% increase
[5]; [10]
  phosphorylation of HSL: significantly increased
[6]; [9]
  CREB phosphorylation, increase (change rate): 39% increase
[6]; [10]
  phosphorylation of CREB: significantly increased
[7]; [9]
  AKT phosphorylation, increase (change rate): 33% increase
[7]; [10]
  phosphorylation of AKT: significantly increased
